≈ marks a conversion by molar mass, not a printed value.
How the values were obtained:
[1] = Determination of compound aqueous solubility in M63 media; assay type: physicochemical; details: in M63 media at 35 °C
Experimental: Determination of Compound Aqueous Solubility. Compound stocks (100 mM in DMSO) were prepared from […]
powder and then further diluted with DMSO to prepare 20 mM working solutions, which were diluted as needed […]
in DMSO. 15 µL o f the DMSO solution was then d iluted to a final volume o f 1.0 mL in M63 media. Six solutions […]
were prepared for each compound, each with a distinct concentration and 1.5% DMSO (v/v). 700 µL of each […]
compound solution was transferred to a polystyrene 48-well plate (VWR), followed by acquisition of UV-vis […]
spectra (300 to 700 nm) with the aid of an Epoch 2 microplate reader (B i o Te k ). […]
Following the acquisition of UV-vis spectra, each of the wells in the plate was inspected under a […]
microscope for evidence of precipitation. Evidence of precipitation at any given concentration was determined by observing a shift in the baseline of the UV-vis spectra relative to the blank (M63 media) and/or evidence of visual precipitation with the aid of a micros cope. […]

[2] = Stability in aqueous solution; assay type: physicochemical
recombinant Pa BfrB = target: T1, recombinant Pa BfrB (Pseudomonas aeruginosa, UniProt Q9HY79); assay: Dissociation constant (Kd), fluorescence quenching titration of apo Pa BfrB; assay type: binding, P. aeruginosa
T1 construct: made in house; host or cells: E. coli
T1 sequence (Q9HY79 whole entry): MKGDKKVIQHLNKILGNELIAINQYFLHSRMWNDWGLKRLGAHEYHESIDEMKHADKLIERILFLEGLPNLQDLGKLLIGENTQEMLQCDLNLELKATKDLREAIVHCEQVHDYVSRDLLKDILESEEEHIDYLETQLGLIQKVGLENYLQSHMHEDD
Experimental: Measurement of Dissociation Constant (Kd) R ecombinant Pa BfrB was expressed in E. coli and purified as previously reported.19 Apo-BfrB (devoid of heme) was utilized for the measurements to prevent heme-driven fluorescence quenching. A 0.5 mL solution contai ning 0.01 µM apo Pa-BfrB in PBS (pH = 7.4) containing0.5% DMSO was plac ed into a 1 cm quartz cuvette wh ere it was titrated with aliq uots of compound dissolved in a 50% (v/v) PBS/DMSO solution. The fluorescence quenching brought by the addition of each aliquot was monitored with the aid of an Agilent Cary Fluorometer , with excitation at 280 nm, emission at 320- 470 nm, 10 x10 nm slit width, and an average of 5 scans per spectrum. Th e binding assay included at least 8 aliquots spanning from ~ 0.1 […]
A control titration was carried out by titrati ng compound into PBS buffer. The Kd was cal culated by fitting the data to equation S4, w here Fb is the fraction bound and Fmax is the fraction bound at saturating compound concentration.
FFbb = FFmmmmmm ? [ccccmmccccccmmcc ]? (S4) […]

P. aeruginosa PAO1 = assay: Half maximal inhibitory concentration (IC50), planktonic growth (CFU/mL); assay type: cell-based; details: M63 media, 18 h
Experimental: Measurement of Half Maximal Inhibitory Concentration (IC50). IC50 values were determined as reported earlier13 with some modifications. Compound stock solutions in DMSO (100 mM and 10 mM) were prepared from powd er. To prep are the cell susp ensions utilized in the measu rements, starter cultures o f P. aeru ginosa wer e diluted to an optical density at 600 nm (OD600) = 0.005 in fresh LB media (5 mL) and then cultured at 37°C and 220 rpm for 4 h prior to diluting to an OD600 = 0.0001 in M63. A small volume of compound stock solution w as further diluted in DMSO to 30 µL and then diluted in M63 cell suspension to a final volume of 2.0 mL. The resultant solution was placed in a well of a 96-well plate and then serially 2-fold diluted in M63 cell suspension to produce 6 distinct com pound concent rations, each with 1.5% DMSO. Th e plate was co ver ed and incubated for 18 h at 35 °C in a Synergy H1 plate reader (Biotek). The resultant cell cultures were serially diluted in PBS and then plated on PI Agar plates (PIA; BD biosciences) for counting viable cells (CFU/mL). The % growth was calculated from the ratio CFU/mL(t reat ed )/CFU/mL(untreated control). To calculate the IC50 values, the % growth was plotted as a function of compound concentration expressed as log[compound] ( µM), and fitted to equation S1 describing the sigmoid- shaped response pattern, 14 where b is the slope factor, max is the upper asymptote (plateau), and min is the lower asymptote. IC 50 values are the average and standard deviation from three independent experiments , each conducted with thr ee techni cal replicates.

A. baumannii 5075 [3] = assay: MIC, broth microdilution in M63 media; assay type: cell-based
Experimental: (§1) Measurement of Minimum Inhibitory Concentrations (MIC). The MIC of compounds and select ed antibiotics against three strains of A. baumannii (5075, ATCC 17988, and ATCC 19606) were determined via the broth microdilution method according to Clinical and Laboratory Standard Instit ute (CLSI) guidelines,15 but culturing […]
(§2) To establish a 2-fold dilution series of compound, 985 μ L of diluted cells was mixed with 15 μ L of compound […]
(§3) dissolved in DMSO, such that the resultant solution had the highest concentration of compound or antibiotic tested and 1.5% DMSO. To carry out the serial dilution from the highest compound concentration, a 150 μ L solution of higher concentration compound or antibiotic was mixed with 150 μ L of cell suspension containing 1.5% DMSO in the wells of a 96 well plate.
(§4) Th e 96 well plate was in cubated for 20 hat 35 °C with continuous orbital shaking (205 cpm) in an Epoch2 microplate reader (BioTek), monitoring the growth by […]
(§5) following the OD600. […]
(§6) FFFFFF = MMMMMMAA iiii ccllccbbiiiicccciilliiMMMMMMAA+ MMMMMMBB iiii ccllccbbiiiicccciilliiMMMMMMBB S2 Time Kill Assays. Time-kill assays were performed with A. baumannii 507 5 by the broth macro- dilution method in M63- medium containing 1.5% DMSO. An overnight culture was diluted to approximately 5 x10^5 CFU/mL in fresh M63 media. The test solutions were prepared by adding compound (KM-5- 35, or KM-5- 25) dissolved in DMSO to 5 mL of diluted cell suspension to yield a solution of the desired compound concentration and 1.5% DMSO, or by the addition of antibiotic dissolved in water and a small volume of DMSO to produce the desired

A. baumannii ATCC 17978 = assay: MIC, broth microdilution in M63 media; assay type: cell-based
Experimental: as §1, §2, §3, §4, §5, §6

A. baumannii ATCC 19606 = assay: MIC, broth microdilution in M63 media; assay type: cell-based
Experimental: as §1, §2, §3, §4, §5, §6

A. baumannii 5075 [4] = assay: Checkerboard assay; assay type: cell-based; details: 5075; for MIC: Acinetobacter baumannii; for Interaction of the antibiotic with KM-5–25: checkerboard
Experimental: To carry out the serial dilution from the highest compound concentration, a 150 μ L solution of higher concentration compound or antibiotic was mixed with 150 μ L of cell suspension containing […] Th e 96 well plate was in cubated for 20 hat 35 °C with continuous orbital shaking (205 cpm) in an Epoch2 microplate reader (BioTek), monitoring the growth by following the OD600. […] All assays were p erfo rmed in three biological replicates, each with three […] replicates. Checkerboard Assay. […] CFU/mL. […] in the vertical and hori zontal direction, respectivel y. Bacterial suspensions were […] escrib ed above fo r the MIC determination and added to the plates. […] The 96-well […] cubated for 20 h at 35 °C with continuous orbital shaking (205 cpm) in an Epoch2 microplate reader (BioTek), monitoring the growth by following the OD600. The MIC values of inhibitor and antibiotic were obtained from the corresponding row or column which contained only one component, whereas the remaining rows and columns were utilized for calculating the fractional inhibitory concentration index (FIC) with the aid of equation […] = […]2 Time Kill Assays. Time-kill assays were performed with A. baumannii 507 5 by the broth macro- dilution method […] An overnight culture was diluted to approximately 5 x10^5 CFU/mL in fresh […] media. […] DMSO, or by the addition of antibiotic dissolved in water and a small volume of DMSO to produce the desired S7

Pa Bfr = details: earlier work, reference number not given; read-out: Kd of Pa Bfd binding to Pa Bfr; cited from earlier work
[5] = agent alone, KM-5–35 14 μg/mL = 40 μM

## O=C1NC(=O)c2c(NCc3ccc(O)cc3O)cccc21 [BN-16-69]
[1]
  Solubility: Unstable
[2]
  stability in aqueous solution: unstable in aqueous solution

## O=C1NC(=O)c2c(NCc3c(O)cccc3O)cccc21 [BN-16-70]
[1]
  Solubility: Unstable
[2]
  stability in aqueous solution: unstable in aqueous solution

## O=C1NC(=O)c2c(NCc3cc(O)ccc3O)cccc21 [EB-5-93]
[1]
  Solubility: Unstable
[2]
  stability in aqueous solution: unstable in aqueous solution

## Cc1cccc(O)c1CNc1cccc2c1C(=O)NC2=O [SB-15-171]
[1]
  Solubility: Unstable

## Cc1ccc(O)c(CNc2ccc(Br)c3c2C(=O)NC3=O)c1 [SB-16-122]
[1]
  solubility at 4 h: 40 µM (≈ 14.4 µg/mL)
Recombinant Pa BfrB
  Kd: 5 ± 1 µM
P. aeruginosa PAO1; planktonic cells
  IC50: 19 ± 4 µM
A. baumannii 5075 [3]; 20 h
  MIC: 20 µM (≈ 7.22 µg/mL)
A. baumannii ATCC 17978; 20 h
  MIC: 20 µM (≈ 7.22 µg/mL)
A. baumannii ATCC 19606; 20 h
  MIC: 20 µM (≈ 7.22 µg/mL)

## O=C1NC(=O)c2c(NCc3cc(O)c(Br)cc3O)cccc21 [SB-16-186]
[1]
  Solubility: Unstable

## O=C1NC(=O)c2c(NCC3CCOCC3)cccc21 [SB-16-237]
[1]
  solubility at 4 h: 100 µM (≈ 26 µg/mL)
Recombinant Pa BfrB
  Kd: 42 ± 10 µM
P. aeruginosa PAO1; planktonic cells
  IC50, P. aeruginosa PAO1: Not active
A. baumannii 5075 [3]; 20 h
  MIC: > 100 µM
A. baumannii ATCC 17978; 20 h
  MIC: > 100 µM
A. baumannii ATCC 19606; 20 h
  MIC: > 100 µM

## O=C1NC(=O)c2c(NCc3ccc4[nH]ccc4c3)cccc21 [SB-17-16]
[1]
  Solubility: Not soluble

## O=C1NC(=O)c2c(NCc3cccc4[nH]ccc34)cccc21 [SB-17-75]
[1]; M63 media with 1.5% DMSO, 35 °C, aqueous buffer, kinetic from dmso stock
  solubility at 4 h: 60 µM (≈ 17.5 µg/mL)
Recombinant Pa BfrB
  Kd: 15 ± 2 µM
P. aeruginosa PAO1; Pseudomonas aeruginosa, PAO1, planktonic cells
  IC50: 32 ± 13 µM
A. baumannii 5075 [3]; Acinetobacter baumannii, 5075, 20 h
  MIC: 30 µM (≈ 8.74 µg/mL)
A. baumannii ATCC 17978; Acinetobacter baumannii, ATCC17978, 20 h
  MIC: 60 µM (≈ 17.5 µg/mL)
A. baumannii ATCC 19606; Acinetobacter baumannii, ATCC19606, 20 h
  MIC: 30 µM (≈ 8.74 µg/mL)

## Cn1ccnc1CNc1cccc2c1C(=O)NC2=O [SB-17-95]
[1]
  solubility at 4 h: 100 µM (≈ 25.6 µg/mL)
Recombinant Pa BfrB
  Kd: 57 ± 6 µM
P. aeruginosa PAO1; planktonic cells
  IC50, P. aeruginosa PAO1: Not active
A. baumannii 5075 [3]; 20 h
  MIC, A. baumannii 5075: Not active
A. baumannii ATCC 17978; 20 h
  MIC, A. baumannii 17978: Not active
A. baumannii ATCC 19606; 20 h
  MIC, A. baumannii 19606: Not active

## O=C1NC(=O)c2c(NCc3ccc4c(c3)CCO4)cccc21 [SB-17-98]
[1]
  Solubility: Not soluble

## O=C1NC(=O)c2c(NCc3ccc4occc4c3)cccc21 [SB-17-109]
[1]
  Solubility: Not soluble

## O=C1NC(=O)c2c(NCc3cccc4c3CCO4)cccc21 [SB-17-110]
[1]
  Solubility: Not soluble

## Cn1ccc2ccc(CNc3cccc4c3C(=O)NC4=O)cc21 [SB-17-114]
[1]
  Solubility: Not soluble

## CC(C)(O/N=C(\C(=O)N[C@@H]1C(=O)N2C(C(=O)[O-])=C(C[n+]3ccccc3)CS[C@H]12)c1csc(N)n1)C(=O)O [ceftazidime, reference compound]
A. baumannii 5075 [4]; [5]
  MIC: 256 µg/mL

## O=C(O)c1cn(C2CC2)c2cc(N3CCNCC3)c(F)cc2c1=O [ciprofloxacin, reference compound]
A. baumannii 5075 [4]; [5]
  MIC: 128 µg/mL

## C[C@@H](O)[C@H]1C(=O)N2C(C(=O)O)=C(SCCN=CN)C[C@H]12 [imipenem, reference compound]
A. baumannii 5075 [4]; [5]
  MIC: 1 µg/mL
A. baumannii 5075 [4]
  Interaction of the antibiotic with KM-5–25: additive

## C[C@@H](O)[C@H]1C(=O)N2C(C(=O)O)=C(S[C@@H]3CN[C@H](C(=O)N(C)C)C3)[C@H](C)[C@H]12 [meropenem, reference compound]
A. baumannii 5075 [4]; [5]
  MIC: 2 µg/mL

## NC[C@H]1O[C@H](O[C@H]2[C@H](O)[C@@H](O[C@H]3O[C@H](CO)[C@@H](O)[C@H](N)[C@H]3O)[C@H](N)C[C@@H]2N)[C@H](N)C[C@@H]1O [tobramycin, reference compound]
A. baumannii 5075 [4]; [5]
  MIC: 512 µg/mL

## colistin [reference compound]
A. baumannii 5075 [4]; [5]
  MIC alone: 1 µg/mL
A. baumannii 5075 [4]
  Interaction of the antibiotic with KM-5–25: synergy

B1: Pa Bfd: Bfr associated ferredoxin that binds Pa Bfr (protein, UniProt Q9HY80 1-73, looked up)
Bacterioferritin-associated …: MYVCLCQGVTDNQIRDAIYEGCCSYREVREATGVGTQCGKCACLAKQVVRETLNDLQSAQPVPAFGTTAFVAA
Pa Bfr
  Kd: 4.7 µM

Reference: publication PMC12261321, “Inhibitors of the Bacterioferritin Ferredoxin Complex Dysregulate Iron Homeostasis and Kill and Biofilm-Embedded Cells” (ACS Infectious Diseases, 2025)
